Assay results: the supplement of paper PMC11208160

Test: recombinant UMI read abundance after kanamycin selection (control-corrected) (log10(CPM+1)); higher = more efficient recombination; extreme values may be limits of the assay; sequences stand for … in AGTGCAGAGAAAATCGGCCAGTTTTCTCTGCCTGCAGTCCGCATGCCGTGGGACCCCTTGGGTTCTAACCTGTTGCCTAGATTTATGCAGCGGACTGCCTTTCTCCCAAAGTGATAAACCGG…AGGTTGGTTTCACT; site = the 11-nt donor
Summary of the method: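 After plating on IPTG (0.07 mM) plus kanamycin, or unselected, in two replicates, recombinant UMIs were PCR-amplified across the donor–target junction and sequenced. The cells were Escherichia coli co-electroporated with a UMI-tagged donor and donor-binding-loop pair library and a target plasmid with a fixed target and T7-inducible IS621 bridge recombinase. Values are log10(CPM+1), with CPM averaged over replicates and scaled by control-derived factors.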

Row | Sequence | recombinant UMI read abundance (log10)
1 | ATTGTGTCATGGACCGGTTTTCCCGGTAATCCGTATTTGAC (site ACTGTGTCTGT) | 1.41
2 | GTGGAGTCATGGACCGGTTTTCCCGGTAATCCGTATTTGTG (site GTGGAGGCTCA) | 0.00513
3 | CAGGAAACATGGACCGGTTTTCCCGGTAATCCGTATTTGCA (site CTGGAAACTTG) | 2.49
4 | CGTACATCATGGACCGGTTTTCCCGGTAATCCGTATTTGCT (site CGGACATCTAG) | 0
5 | CGGGTCCCATGGACCGGTTTTCCCGGTAATCCGTATTTGCC (site CGGGTCCCTGG) | 1.39
6 | GTACGCACATGGACCGGTTTTCCCGGTAATCCGTATTTGTA (site GTAAGCACTTA) | 0.0204
7 | TTGGCCACATGGACCGGTTTTCCCGGTAATCCGTATTTGGA (site TTGGCCACTTC) | 0.146
8 | CCCTAGCCATGGACCGGTTTTCCCGGTAATCCGTATTTGGC (site CCCTAGCCTGT) | 0
9 | AGAGGACCATGGACCGGTTTTCCCGGTAATCCGTATTTGGG (site AGAGGACCTCC) | 0.0119
10 | ACAGAAACATGGACCGGTTTTCCCGGTAATCCGTATTTGCA (site ACAGAAACTTG) | 2.78
11 | GTATGCACATGGACCGGTTTTCCCGGTAATCCGTATTTGTG (site GTATGCACTTA) | 1.29
12 | AGGGCACCATGGACCGGTTTTCCCGGTAATCCGTATTTGCA (site AGGGCACCTTG) | 0.655
13 | ATAAAGGCATGGACCGGTTTTCCCGGTAATCCGTATTTGCT (site ACAAAGGCTAG) | 1.63
14 | GACAAACCATGGACCGGTTTTCCCGGTAATCCGTATTTGGT (site GACATACCTAC) | 0
15 | TCACGCGCATGGACCGGTTTTCCCGGTAATCCGTATTTGAA (site TCACGCGCTTT) | 1.05
16 | TAAATTCCATGGACCGGTTTTCCCGGTAATCCGTATTTGTA (site TAAAATCCTTA) | 0.00321
17 | TCCTCCTCATGGACCGGTTTTCCCGGTAATCCGTATTTGCC (site TCCTCCTCTGG) | 0
18 | GAATGCTCATGGACCGGTTTTCCCGGTAATCCGTATTTGAA (site TAATGCTCTTT) | 0.684
19 | TGCCCAACATGGACCGGTTTTCCCGGTAATCCGTATTTGGT (site TGCCCAACTAC) | 0.06
20 | CCTAAAGCATGGACCGGTTTTCCCGGTAATCCGTATTTGCT (site CCTAAAGCTAC) | 0
21 | CAAACGCCATGGACCGGTTTTCCCGGTAATCCGTATTTGTG (site CAAGCGCCTCA) | 0.0253
22 | GATGTAACATGGACCGGTTTTCCCGGTAATCCGTATTTGCT (site CATGTAACTAG) | 1.31
23 | TCATACTCATGGACCGGTTTTCCCGGTAATCCGTATTTGAA (site TCATACTCTTC) | 0.0134
24 | GGAGATCCATGGACCGGTTTTCCCGGTAATCCGTATTTGCA (site GGAGATCCTTG) | 0
25 | GTAGTCGCATGGACCGGTTTTCCCGGTAATCCGTATTTGCC (site GTAGTCGCTGG) | 2.93

Row | Sequence | recombinant UMI read abundance (log10)
26 | CGTTAGACATGGACCGGTTTTCCCGGTAATCCGTATTTGAG (site CTTTAGACTCT) | 0.00778
27 | GTTAGACCATGGACCGGTTTTCCCGGTAATCCGTATTTGGC (site GTTAGATCTGC) | 0
28 | AATCATGCATGGACCGGTTTTCCCGGTAATCCGTATTTGGA (site AATAATGCTTC) | 0.666
29 | ACATGGTCATGGACCGGTTTTCCCGGTAATCCGTATTTGTC (site ACATGGTCTGA) | 1.81
30 | GGTCCAACATGGACCGGTTTTCCCGGTAATCCGTATTTGCA (site GGTCCAACTTG) | 0
31 | ATCCTAGCATGGACCGGTTTTCCCGGTAATCCGTATTTGAG (site ATCCAAGCTCT) | 0.122
32 | GCTCTAGCATGGACCGGTTTTCCCGGTAATCCGTATTTGAC (site GCTCTAGCTGT) | 1.67
33 | AGGATGACATGGACCGGTTTTCCCGGTAATCCGTATTTGCA (site AGGAGGACTTG) | 1.19
34 | CTCCGTACATGGACCGGTTTTCCCGGTAATCCGTATTTGCT (site CACCGTACTAG) | 1.41
35 | GCTTGTCCATGGACCGGTTTTCCCGGTAATCCGTATTTGAT (site GCTTGTCCTAT) | 0
36 | GGTCCAACATGGACCGGTTTTCCCGGTAATCCGTATTTGTA (site GGTCCACCTTA) | 0.011
37 | GCTAAAGCATGGACCGGTTTTCCCGGTAATCCGTATTTGAT (site ACTAAAGCTAT) | 0.901
38 | GAATGGCCATGGACCGGTTTTCCCGGTAATCCGTATTTGCA (site GAAAGGCCTTG) | 0
39 | ACGAGGCCATGGACCGGTTTTCCCGGTAATCCGTATTTGCC (site ACGAGGCCTGG) | 0.486
40 | CATACAGCATGGACCGGTTTTCCCGGTAATCCGTATTTGTG (site CATACAGCTCA) | 1.18
41 | TATTTGACATGGACCGGTTTTCCCGGTAATCCGTATTTGTG (site TATTTGACTCA) | 0.0179
42 | GCTACTGCATGGACCGGTTTTCCCGGTAATCCGTATTTGCC (site GCTACTGCTCG) | 0
43 | TGTTAGACATGGACCGGTTTTCCCGGTAATCCGTATTTGAG (site TGTTAGACTCT) | 0.233
44 | GGCCAAACATGGACCGGTTTTCCCGGTAATCCGTATTTGAC (site GGCCAAACTGT) | 1.73
45 | CGTTTGGCATGGACCGGTTTTCCCGGTAATCCGTATTTGCG (site CGTTTGGCTAG) | 0
46 | GCCACGCCATGGACCGGTTTTCCCGGTAATCCGTATTTGCA (site GCCACGCCTTA) | 0
47 | CACTCCTCATGGACCGGTTTTCCCGGTAATCCGTATTTGCC (site CACACCTCTGG) | 1.79
48 | TGCTTGGCATGGACCGGTTTTCCCGGTAATCCGTATTTGGT (site TGCTCGGCTAC) | 0
49 | ATGCAGACATGGACCGGTTTTCCCGGTAATCCGTATTTGTC (site ATGCAGACTGA) | 2.43
50 | CGTTAGACATGGACCGGTTTTCCCGGTAATCCGTATTTGGG (site CGTTAGACTCA) | 0

Row | Sequence | recombinant UMI read abundance (log10)
51 | TATAAGACATGGACCGGTTTTCCCGGTAATCCGTATTTGAC (site TATAAGACTGT) | 2.01
52 | ATATCTGCATGGACCGGTTTTCCCGGTAATCCGTATTTGGC (site ATATCTGCTGC) | 0.5
53 | CGGAATCCATGGACCGGTTTTCCCGGTAATCCGTATTTGTT (site TGGAATCCTAA) | 0
54 | ACTCAATCATGGACCGGTTTTCCCGGTAATCCGTATTTGAG (site ACTCAATCTCT) | 1.69
55 | GGAGACTCATGGACCGGTTTTCCCGGTAATCCGTATTTGTG (site GGAGACTCTCA) | 1.74
56 | CTTCTCTCATGGACCGGTTTTCCCGGTAATCCGTATTTGTA (site CTTGTCTCTTA) | 0.00827
57 | AATTATGCATGGACCGGTTTTCCCGGTAATCCGTATTTGGA (site AATTATACTTC) | 0.816
58 | ACTAGTACATGGACCGGTTTTCCCGGTAATCCGTATTTGAG (site ACTAGTACTCT) | 1.35
59 | CGTTTGGCATGGACCGGTTTTCCCGGTAATCCGTATTTGCT (site CGTATGGCTAG) | 0.00345
60 | ATTGAGACATGGACCGGTTTTCCCGGTAATCCGTATTTGTT (site ATTGAGACTAC) | 0.013
61 | GCACCGACATGGACCGGTTTTCCCGGTAATCCGTATTTGAA (site GCACCGACTTT) | 0.965
62 | CGATCATCATGGACCGGTTTTCCCGGTAATCCGTATTTGCT (site CGATCATCTCC) | 0.00455
63 | ACATCTACATGGACCGGTTTTCCCGGTAATCCGTATTTGTG (site ACACCTACTCA) | 0.00963
64 | GCACGTGCATGGACCGGTTTTCCCGGTAATCCGTATTTGGC (site GCACGTGCTGC) | 2.23
65 | AAGTTCCCATGGACCGGTTTTCCCGGTAATCCGTATTTGTG (site ATGTTCCCTCA) | 0.0155
66 | TACATGACATGGACCGGTTTTCCCGGTAATCCGTATTTGCT (site TACTTGACTAG) | 0.0568
67 | TATTGAGCATGGACCGGTTTTCCCGGTAATCCGTATTTGGG (site TAATGAGCTCC) | 0.0665
68 | TAGAATACATGGACCGGTTTTCCCGGTAATCCGTATTTGCA (site TACAATACTTG) | 0.745
69 | CTTCTTTCATGGACCGGTTTTCCCGGTAATCCGTATTTGTA (site CTTCTATCTTA) | 0.00989
70 | CGGAATCCATGGACCGGTTTTCCCGGTAATCCGTATTTGTT (site CGGAAGCCTGA) | 0
71 | TGGGCGGCATGGACCGGTTTTCCCGGTAATCCGTATTTGGC (site TGGGCGGCTGC) | 2.09
72 | GACAAACCATGGACCGGTTTTCCCGGTAATCCGTATTTGGT (site GACAAACCTAT) | 0
73 | GGTCCAACATGGACCGGTTTTCCCGGTAATCCGTATTTGCA (site GGTCCAACTTT) | 0.0134
74 | ACAACTACATGGACCGGTTTTCCCGGTAATCCGTATTTGTG (site ACATCTACTCA) | 0.146
75 | GTTAAAGCATGGACCGGTTTTCCCGGTAATCCGTATTTGTA (site GTTAAAGCTTA) | 2.59
